Results as given in patent US20060078875A1, “Genetic selection of small molecule modulators of protein-protein interactions” (The Penn State Research Foundation, priority 2004, published 2006).
One block for each compound: values may come before it. Peptide text beside a SMILES is read from it.

Columns and labels:
[1] = biological target: T1, HIV-1 protease (Human immunodeficiency virus type 1 group M subtype B, UniProt P04585, D513N); assay: RTHS β-galactosidase assay, HIV-1 protease fusion in strain SNS118; format: cell-based; settings: peptide co-expressed with HIV-1 protease fusion
T1 construct: HIV-1 protease was PCR amplified from pET-HIV-1; expressed in transfected cells; host or cells: E. coli strain SNS118 (integrated fusion)
Method: FIG. 4 has two graphs (A and B) of β-galactosidase assays showing the effect of linear peptide inhibitors on the oligomeric state of HIV-1 protease and ribonucleotide reductase.
pHIV5. HIV-1 protease was PCR amplified from pET-HIV-1 [Ido et al. (1991) J. Biol. Chem. 266:24359-24366] and cloned into SalI and BamHI sites of pTHCP16. The catalytic aspartate (D25) was mutated to asparagine using 3-primer PCR [Michael (1994) Biotechniques 16:410-412], and a S(G)4S linker was added at the SalI site.
Overlapping oligonucleotides encoding MTVSYEL (methionine plus hexapaptide control inhibitor) (SEQ ID:17) [Schramm et al. (1996) Antiviral Res. 30:155-170] were cloned into EcoRI and SphI sites on arabinose expression plasmid pBAD18.
Towards this goal, both enzyme complexes were probed with known linear peptidic inhibitors. These peptides are a C-terminal hexapeptide (FIG. 4A, pHIV16) for HIV protease that inhibits the essential β-sheet interactions [Schramm al. (1996) Antiviral Res. 30:155-170], and a heptapeptide for ribonucleotide reductase (pTHCP35, FIG. 4B) that competes with binding between subunits mR1 and mR2 [Yang et al. (1990) FEBS Lett. 272:61-64].

[2] = biological target: T2, His6-mR2 (Mus musculus, UniProt P11157); assay: Quenching of intrinsic mR2 tryptophan fluorescence; format: binding, murine; settings: PBS pH 7.0
T2 construct: made in house; host or cells: E. coli BL21(λDE3), pET28a-MR2
T2 sequence (P11157 1-390): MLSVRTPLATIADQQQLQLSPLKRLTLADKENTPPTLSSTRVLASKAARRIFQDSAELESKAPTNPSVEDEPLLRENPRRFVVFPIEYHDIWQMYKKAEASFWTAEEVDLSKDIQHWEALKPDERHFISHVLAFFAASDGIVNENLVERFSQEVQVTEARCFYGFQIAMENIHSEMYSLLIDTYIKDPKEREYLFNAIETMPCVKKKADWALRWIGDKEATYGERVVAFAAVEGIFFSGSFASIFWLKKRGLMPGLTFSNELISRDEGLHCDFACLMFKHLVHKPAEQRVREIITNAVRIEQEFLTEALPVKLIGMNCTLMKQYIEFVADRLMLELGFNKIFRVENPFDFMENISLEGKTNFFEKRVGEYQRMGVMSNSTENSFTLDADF
Method: The equilibrium dissociation constant, KD, for His-tagged mR2·cRR130 complex was measured by the quenching of intrinsic protein fluorescence as a function of ligand concentration using a Flouromax-2 (SA Instruments) spectrofluorometer. His6-mR2 was added to 1× phosphate buffered saline (PBS) buffer at pH 7.0, and enzyme concentrations were kept below the KD being measured and were typically 1 μM. The small subunit mR2 contains six tryptophan residues whose combined fluorescence was monitored at 350 nm with excitation at 295 nm. Fluorescence data were collected as a function of added cRR130. The data was corrected for ligand background fluorescence and were fit to a hyperbolic equation to generate the KD value.

[3] = biological target: T3, ATIC homodimer (Gallus gallus, UniProt P31335); assay: ATIC RTHS ranking by spotting serial dilutions on selective media; format: cell-based; settings: cyclic peptides in order of biological activity (1 = most active)
T3 construct: expressed in transfected cells; host or cells: E. coli RTHS strain with the ATIC fusion integrated on the chromosome
T3 sequence (P31335 1-593): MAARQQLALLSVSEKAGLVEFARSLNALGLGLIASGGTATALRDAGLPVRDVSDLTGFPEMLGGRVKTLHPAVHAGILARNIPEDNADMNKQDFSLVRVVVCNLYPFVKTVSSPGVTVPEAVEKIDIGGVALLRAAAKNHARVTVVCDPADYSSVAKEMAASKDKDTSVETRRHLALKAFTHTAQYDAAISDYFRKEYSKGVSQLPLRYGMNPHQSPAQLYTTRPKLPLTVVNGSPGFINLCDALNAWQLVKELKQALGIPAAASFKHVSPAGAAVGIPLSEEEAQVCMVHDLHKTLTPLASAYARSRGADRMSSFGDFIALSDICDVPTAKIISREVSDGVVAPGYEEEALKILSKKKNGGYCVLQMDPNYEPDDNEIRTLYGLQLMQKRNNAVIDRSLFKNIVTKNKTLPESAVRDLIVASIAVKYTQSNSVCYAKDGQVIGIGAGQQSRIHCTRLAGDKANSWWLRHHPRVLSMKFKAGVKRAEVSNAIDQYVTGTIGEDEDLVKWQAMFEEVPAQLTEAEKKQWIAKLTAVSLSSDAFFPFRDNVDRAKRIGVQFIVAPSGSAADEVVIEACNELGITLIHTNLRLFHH
Method: ATIC was cloned as a fusion with the bacteriophage 434 repressor DNA binding domain (into pTHCP16, FIG. 1B) such that expression of the repressor-ATIC fusion placed under control of an isopropyl β-D-thiogalactoside (IPTG) inducible promoter. […] In order to improve selection conditions, a new RTHS strain was constructed by integrating the ATIC fusion onto the chromosome. The level of IPTG giving optimal repression was determined to be 50 μM by β-galactosidase assays.
The first SICLOPPS library transformed into the selection strain encoded a hexapeptide with five random residues and a cysteine nucleophile. Approximately 10^7 transformants were plated onto histidine-free minimal media supplemented with arabinose, (inducer for SICLOPPS) 3-amino-1,2,4-triazole (3-AT, competitive inhibitor of HIS3 product) and kanamycin at a density of 10^6 per plate (100×15 mm). The plates were incubated until colonies were readily visible (approximately one in 10^5). A second library encoding an octapeptide with five random residues and an invariable SGW motif was also tested (not shown). Around 200 colonies were picked and screened for arabinose dependent growth advantage and IPTG dependent inhibition of growth to eliminate false positives. The expected phenotype was further confirmed by isolating and retransforming the selected SICLOPPS plasmids into the selection strain. The 14 remaining cyclic peptides were then ranked for activity by spotting serial dilutions of the corresponding cells onto selective media, allowing the conferred growth advantage to be compared at each dilution level.
SICLOPPS libraries were transformed into E. coli strains containing integrated reporter and repressor constructs. Transformants were washed with minimal media A and plated on minimal media A supplemented with 13 μM L-(+)-arabinose, 2.5 mM 3-amino-1,2,4-triazole, 25 μM kanamycin and 50 μM IPTG. After incubation at 37° C. for 3-4 days, surviving colonies were restreaked onto the same media with and without arabinose. Plasmids from selected strains whose growth depended on the presence of arabinose were retransformed into the original selection strain and checked for phenotype retention. The variable insert regions on SICLOPPS plasmids were PCR-amplified, and their DNA sequence determined.

[4] = biological target: T4, avian ATIC (AICAR Tfase) (Gallus gallus, UniProt P31335); assay: AICAR Tfase progress curve analysis (DynaFit); format: biochemical; parameters: 6× histidine tag (N); made in house; settings: progress curves
T4 sequence (P31335 1-593): T3 sequence (P31335 1-593)
Method: The inhibitors were assayed under two conditions, limiting the amount of each substrate. In one case 168 nM of ATIC, 100 μM of 10-f-THF and 20 μM of AICAR was used (limiting AICAR), and in the second case 168 nM of ATIC, 40 μM of 10-f-THF and 100 μM of AICAR was used (limiting 10-f-THF). The reactions were monitored as outlined above, for 50 minutes. […] The data was fitted to the standard inhibition models (non-competitive, uncompetitive, mixed and competitive) and a model in which the inhibitor binds a monomer of ATIC preventing dimerization.
The progress curves were fitted to a model in which the inhibitor binds a single protomer of ATIC thereby preventing dimerization, as well as the standard inhibition models (non-competitive, uncompetitive, mixed and competitive) using DynaFit [Kuzmic (1996)].

[5] = biological target: T5, ribonucleotide reductase large subunit (mR1) (Mus musculus, UniProt P07742); assay: Immobilized peptide binding/competition ELISA with mR1; parameters: species or system murine; settings: peptide immobilized via cysteine on maleimide plates; His6-tagged mR1
T5 construct: made in house; host or cells: E. coli BL21(λDE3) Rosetta, pET28a-MR1
T5 sequence (P07742 1-792): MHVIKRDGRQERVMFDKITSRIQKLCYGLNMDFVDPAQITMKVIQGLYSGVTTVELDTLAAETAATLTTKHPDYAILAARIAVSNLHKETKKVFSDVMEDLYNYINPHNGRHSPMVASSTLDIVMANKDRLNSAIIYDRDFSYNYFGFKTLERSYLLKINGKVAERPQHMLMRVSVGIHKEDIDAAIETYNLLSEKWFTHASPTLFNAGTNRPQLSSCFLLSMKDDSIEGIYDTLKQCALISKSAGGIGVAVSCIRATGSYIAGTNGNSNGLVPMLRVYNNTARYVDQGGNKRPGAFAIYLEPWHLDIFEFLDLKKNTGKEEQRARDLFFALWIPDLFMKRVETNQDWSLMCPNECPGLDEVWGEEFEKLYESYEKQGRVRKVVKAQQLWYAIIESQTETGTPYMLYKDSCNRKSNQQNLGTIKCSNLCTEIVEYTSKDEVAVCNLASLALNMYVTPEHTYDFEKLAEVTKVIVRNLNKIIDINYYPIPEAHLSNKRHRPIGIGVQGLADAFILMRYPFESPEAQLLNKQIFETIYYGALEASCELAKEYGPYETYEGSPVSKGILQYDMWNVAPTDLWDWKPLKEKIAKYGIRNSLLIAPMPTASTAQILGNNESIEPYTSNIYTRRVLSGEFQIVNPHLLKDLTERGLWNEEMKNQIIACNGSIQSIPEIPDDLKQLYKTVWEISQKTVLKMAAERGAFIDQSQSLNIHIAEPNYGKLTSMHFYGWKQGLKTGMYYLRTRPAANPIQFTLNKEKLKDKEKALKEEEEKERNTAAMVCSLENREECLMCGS
Method: (§1) FIG. 8B provides the results of an immobilized P8 ELISA.
(§2) Two variations of solid phase binding assays were used for analyzing the binding of peptide inhibitors to ribonucleotide reductase subunits: i) protein competition ELISA where peptides were competing with mR1 for binding to immobilized mR2, ii) binding and competition ELISA with covalently immobilized ligands. In general, the solid phase assays were performed in microtiter plates (MaxiSorp, Nunc) or strip units (Reacti-Bind™ Maleimide Activated Clear Strip Plates, Pierce) involving continuous agitation in Junior Orbit Shaker (Lab-line Instruments) at medium speed during all of the incubation steps. Sample volumes were 100 μL, unless specified otherwise. Following coating, blocking step was conducted by incubating pre-loaded wells with 5% bovine serum albumin in PBS for 1 h at room temperature. Wash procedures between any two successive incubations involved three washes with 200 μL of 0.5% Tween-20 in PBS (PBST), with the second wash involving a 5 min incubation. Detection of His-tagged proteins was performed with Ni·NTA-HRP conjugate (Qiagen) according to the manufacturer instructions.
(§3) Peptides (200 nmol per well) in 10% DMF/50 mM Tris·HCl (pH 7.5) with 1 mM TCEP were reacted for 2 h at room temperature with maleimide-derivatized polystyrene wells. The unreacted sites were blocked by incubating wells with 5 μM cysteine in 50 mM Tris·HCl (pH 7.5) for 30 min. Following washing and blocking steps, the wells were incubated with His-tagged mR1 or mR2 in the presence or absence of inhibitors. The retained protein was detected via Ni·NTA-HRP conjugate.
(§4) To determine the mechanism of action of the four identified sequences an alternative assay format was devised (FIG. 8A), where a peptide with a residual activity in its immobilized form can serve as a specific ligand for receptor capture in both binding and competition ELISA. The success of such an assay relies on both efficient peptide immobilization strategy and sufficient level of affinity, uncompromised by this display strategy. The peptide immobilization becomes feasible through implementation of a cysteine, a nucleophile used in splicing, as a universal chemoselective handle allowing covalent attachment strategy through a suitable electrophile. Chemoselective attachment of such peptides on appropriately derivatized surfaces should both display the small molecules for detection with a suitable protein receptor and allow binding site competition analysis, not unlike in a traditional immunosorbent format.

[6] = biological target: T6, ribonucleotide reductase small subunit (mR2) (Mus musculus, UniProt P11157); assay: Immobilized c-RR130 binding/competition ELISA with mR2; parameters: species or system murine; settings: increasing protein concentrations
T6 construct: made in house; host or cells: E. coli BL21(λDE3), pET28a-MR2
T6 sequence (P11157 1-390): T2 sequence (P11157 1-390)
Method: as §1, §2, §3, §4

Compound: MTVSYEL [pHIV16]
Repression of the lacZ reporter [1]: relieved repression

Kd [2]: 133 µM
Compound: CC(C)[C@@H]1NC(=O)[C@H](Cc2ccc(O)cc2)NC(=O)[C@H](CCCNC(=N)N)NC(=O)[C@H](Cc2c[nH]cn2)NC(=O)[C@H](CS)NC(=O)[C@H](Cc2ccccc2)NC1=O [c-RR133] (cyclo(CHRYVF))

Activity Rank [3]: 1
Best-fitting inhibition model with respect to 10-f-THF [4]: inhibition of enzyme dimerization
Best-fitting inhibition model with respect to AICAR [4]: non-competitive inhibition model
Compound: CC(C)[C@@H]1NC(=O)[C@H](CC(N)=O)NC(=O)[C@H](Cc2ccccc2)NC(=O)[C@H](Cc2ccc(O)cc2)NC(=O)[C@H](CCCNC(=N)N)NC(=O)[C@H](CS)NC1=O [c-1a, R Y F N V C] (cyclo(RYFNVC))

Affinity of immobilized peptide toward mR1 [5]: immune
Capture of His6-tagged mR2 by immobilized peptide [6]: selectively captured
Kd [2]: 53 µM
Compound: CC(C)[C@@H]1NC(=O)[C@H](CC(N)=O)NC(=O)[C@H](Cc2ccc(O)cc2)NC(=O)[C@H](Cc2ccc(O)cc2)NC(=O)[C@H](CCCNC(=N)N)NC(=O)[C@H](CS)NC1=O [c-RR130] (cyclo(CRYYNV))
